Patent US7001611B2, “Compositions normalizing circadian rhythm” (Suntory Limited, priority 2000, dated 2006)
“Also recorded” adds a separate entry of the source.

Key:
Wistar rats = assay: Circadian rhythm measuring method: amount of daily (spontaneous) movements of rats counted with an infrared sensor under a 12-hour light / 12-hour dark cycle; type: in vivo, rat; details: for enhancive effect on the circadian rhythm normalizing action of melatonin: Example 3; for ratio of activity in the light period to the total amount of movements (averages): Example 2, vs control group, astaxanthin diet, melatonin water (about 1 mg/day) or both, FIG. 5
Text: To search for a substance having the action of normalizing the circadian rhythm, the inventors of the present invention conducted studies on various substances with the use of a circadian rhythm measuring method, with the amount of spontaneous movement of rats as an indicator, in an environment controlled to have a 12-hour light period and a 12-hour dark period. As a result, the inventors have clarified that astaxanthin, which is one of carotenoids, and/or its ester has a circadian rhythm normalizing action. […] These findings led them to accomplish the present invention. The influence of astaxanthin on daily movements was investigated in rats. Rats have the habit of resting (sleeping) mainly in the light period, and acting in the dark period. The circadian rhythm of rats was investigated by measuring the amount of daily movements continuously, and examining changes over time in the amounts of movements in the light period and the dark period. Four-week-old male Wistar rats (purchased from Nippon […]) were preliminarily reared for one week, and subjected to experiments at the age of 5 weeks. The rats were randomly divided into two groups (5 to 6 rats/group), and one of the groups was used as a control diet (low tocopherol) group, while the other group was used as an astaxanthin diet group, each group receiving the designated diet for 4 weeks. The animals were reared in animal cages kept at room temperature of 23.5±1° C. and a humidity of 55±5%, and the feed and water were provided ad libitum. Astaxanthin used was astaxanthin extracted from […] purified (an oil containing 15% of astaxanthin as a free compound; a product of Itano Refrigerating Co.). The rats were individually reared in a box equipped with an infrared sensor, and the amount of movements was counted with the infrared sensor. That is, each time the animal passed the infrared sensor, the passage was taken as one count. The counts taken were accumulated, and expressed as the amount of movements (counts). Statistical treatment was performed using ANOVA and student t-test. A period of 1 week after start of rearing with the experimental diet was set as a tuning period in which the animal was tuned to a 12-hour dark period and a 12-hour light period. Then, from the 2nd week, the amount of daily movements was continuously measured for 3 weeks. The total amount of movements, and the ratio of movements in the light period to the total amount of movements (i.e., the amount of movements in the light period/the total amount of movements×100 (%)) were calculated every day. […] The averages of the ratio (%) of movements in the light period were compared in both groups (FIG. 3). […] Four-week-old male Wistar rats (purchased from Nippon […]) were preliminarily reared for one week, and subjected to experiments at the age of 5 weeks. The rats were randomly divided into two groups (10 to 11 rats/group), and the two groups were given a control diet (low tocopherol diet) and an astaxanthin diet (Table 1), respectively. Each group was further divided into two groups (5 to 6 rats/group), which received distilled water and melatonin water, respectively, for 4 weeks. The animals were reared in animal cages kept at room temperature of 23.5±1° C. and a humidity of 55±5%, and the feed and water were provided ad libitum. Melatonin was dissolved in water at a concentration of 0.5 mg/100 ml, and the solution was given ad lib, as drinking water. The intake of melatonin, calculated from the amount of water taken by rats, was about 1 mg/day. After start of rearing with the experimental diet, a tuning period of 1 week was provided. Then, the amount of movements of rats was measured as in Example 1 for 3 weeks to look into changes in the circadian rhythm. No differences were noted among the averages of the total amount of movements in the respective groups (FIG. 4). […]

[1] = Yamashita 1992; cited from earlier work
[2] = system: lipid peroxides in the brain; details: dose 1/100 the dose of α-tocopherol; Nishigaki et al. 1994; cited from earlier work
[3] = Example 4, tocopherol-deficient basic feed, FIG. 9

Compound	enhancive effect on the circadian rhythm normalizing action of melatonin (Wistar rats; 0.001% tocopherol diet with melatonin water, FIG. 6)	enhancive effect on the circadian rhythm normalizing action of melatonin (Wistar rats; 0.005% tocopherol diet with melatonin water, FIG. 7)	enhancive effect on the circadian rhythm normalizing action of melatonin (Wistar rats; 0.005% tocopherol diet with melatonin water, FIG. 7, listed as tocopherol)	ratio of activity in the light period to the total amount of movements (averages) (Wistar rats)	antioxidant action compared with α-tocopherol [1]	total amount of movements (day-to-day changes) (Wistar rats; Example 1, astaxanthin diet (0.3 g/kg of oil containing 15% astaxanthin) vs control low tocopherol diet, 3 weeks, FIG. 1)	average of the ratio (%) of movements in the light period (Wistar rats; Example 1, astaxanthin diet group vs control, FIG. 3)	ratio of movements in the light period to the total amount of movements (day-to-day changes) (Wistar rats; Example 1, astaxanthin diet vs control low tocopherol diet, 3 weeks, FIG. 2)	enhancive effect on the circadian rhythm normalizing action of melatonin (Wistar rats; 0.0045% astaxanthin diet with melatonin water, FIG. 8)	total amount of movements (Wistar rats; Example 4, maximum dose of 1.5 g/kg diet, tocopherol-deficient basic feed, FIG. 10)	doses at which the decrease of the ratio of activity in the light period was significant (Wistar rats; [3]) [g/kg diet]	minimum dose at which the ratio of activity in the light period decreased (Wistar rats; [3]) [g/kg diet]	ratio of activity in the light period to the total amount of movements (dose dependency) (Wistar rats; Example 4, tocopherol-deficient basic feed, astaxanthin diets 0.15, 0.3, 0.6, 1.5 g/kg, FIG. 9)	increases in lipid peroxides in the brain caused by irradiation with 60Co [2]
Cc1c(C)c2c(c(C)c1O)CC[C@@](C)(CCC[C@H](C)CCC[C@H](C)CCCC(C)C)O2 [α-tocopherol, reference compound]	no effect of enhancing the circadian rhythm normalizing action of melatonin	no effect of enhancing the circadian rhythm normalizing action of melatonin	slight enhancive effect											
COc1ccc2[nH]cc(CCNC(C)=O)c2c1 [melatonin, reference compound]				tendency toward a decrease in the ratio of activity in the light period										
CC1=C(/C=C/C(C)=C/C=C/C(C)=C/C=C/C=C(C)/C=C/C=C(C)/C=C/C2=C(C)C(=O)[C@@H](O)CC2(C)C)C(C)(C)C[C@H](O)C1=O [Astaxanthin, astaxanthin]				tendency toward a decrease in the ratio of activity in the light period	more potent than that of α-tocopherol	did not affect the total amount of movements	significant decrease in the ratio of movements in the light period	lowered the ratio of movements in the light period	enhance the circadian rhythm normalizing action of melatonin significantly; also recorded: more potent effect of enhancing the circadian rhythm normalizing action of melatonin than does α-tocopherol	tended to increase	≥ 0.3	0.15	decreased in an astaxanthin concentration-dependent manner	can suppress increases in lipid peroxides in the brain
